# Experimental data reported in article PMC12973313 (Chemical Science, 2026).
# Where two headings read alike, the source gives them in different places.
# Key:
# [1] = set-up: method as in PMID 29633393; details: equal K/dimerization model, DMSO-d6 0.5% H2O; cited from earlier work
# [2] = 1H NMR DOSY, DMSO-d6 0.5% H2O, 112 mM, 298 K; cited from earlier work
# [3] = Metabolic stability in liver microsomes; format: in vitro ADME, mouse
# Experimental: (§1) Following this, the metabolic stability of 9 was determined against mouse, rat, and human liver microsomes. […] Within this assay the stability of the intact parent compound is monitored with respect to time, during incubation at 37 °C in the presence and absence of the co-factor NADPH – required for cytochrome p450 activity.
# (§2) Metabolic Stability in Rat, Mouse and Human Liver Microsomes:
# (§3) The metabolic stability of compounds at a concentration of 1 µM, in rat, mouse and human liver microsomes (BD Gentest, Franklin Lakes NJ) was measured following incubation with […]
# (§4) (NADPH) at 37 °C. Aliquots of each incubation were removed at 0.5, 5, 15, 30 and 60 minutes. The reaction was stopped by the addition of cold acetonitrile containing analytical […]
# (§5) Samples were then centrifuged at 3,220 g for 40 minutes. The supernatant was aliquoted and added to ultra-pure H2O in a 1:1 ratio in preparation for LC-MS/MS analysis.
# (§6) Incubations were conducted in duplicate; control incubations (substituting PBS for NADPH) were conducted simultaneously.
# (§7) Samples were analysed using a Shimadzu Shimadzu Nexera LC Binary Gradient LC-30AD (Shimadzu Inc, Kyoto), coupled to a Sciex 5500 mass spectrometer (AB Inc., Illinois) for rat and mouse microsomes and a Sciex 6500+ for human microsomes. Separation achieved using an XSelect HSS T3 column (2.5µm, 50 x 2.1 mm) (Waters Ltd., Wilmslow) at a temperature of 40°C and a binary mobile phase gradient at a flow rate of 0.7 mL/min. Initial […]
# (§8) (0.1% formic acid in acetonitrile).
# (§9) 0.5 minutes and then immediately returned to initial conditions. Sample analysis was by electrospray ionisation combined with multiple reaction monitoring in positive ion mode.
# (§10) The ionspray voltage was 5500V.
# (§11) Bi-directional Permeability in Caco-2 Cell Line: […]
# [4] = Metabolic stability in liver microsomes; format: in vitro ADME, rat
# Experimental: as §1, §2, §3, §4, §5, §6, §7, §8, §9, §10, §11
# Caco-2 cell monolayer = assay: Bi-directional permeability in Caco-2 cell line; format: in vitro ADME
# Source text: Next, to gauge the suitability of SSAs for oral dosing, 9 was subjected to a Caco-2 permeability assay which is used to both predict human intestinal permeability and investigate drug efflux, predicting in vivo compound absorption. This assay allows assessment of a compound's ability to undergo transport from the apical to the basolateral (A–B) compartments of the cell monolayer and vice versa (B–A). […] This is likely to result in poor absorption when dosed orally and therefore further development would be necessary for these agents to become suitable for oral administration. […]
# as §10
# Bi-directional Permeability in Caco-2 Cell Line:
# The bi-directional permeability in Caco-2 cell lines was determined by seeding cells onto an HTS Transwell plate. Cells were cultivated for 14-18 days in a cell culture incubator at 37°C, 5% CO2, 95% relative humidity. Cell culture medium was replaced every other day. To assess monolayer integrity the transepithelial electrical resistance (TEER) across the monolayer was measured using Millicell Epithelial volt-ohm meter prior to assay and Lucifer yellow (LY) fluorescence measurement post-assay.
# Test compound was prepared in DMSO and diluted in Hank’s Balanced Saline Solution (HBSS, pH 7.4) to a final concentration of 5 µM. Compound was added to the donor compartment of the transwell plate for both apical to basolateral (A>B) and basolateral to apical (B>A) measurements, with blank HBSS being added to the receiver compartment. The transwell plate was then incubated at 37°C, 5% CO2 for 2 hours.
# Samples were taken at T=0 and T=2 hours determine the concentration of initial donor sample, and the concentration of receiver and donor wells post-incubation, respectively.
# The samples were quenched with solvent containing internal standard (IS). The supernatant was mixed with an appropriate volume of ultra-pure water before LC-MS/MS analysis.
# Samples were analysed using a Shimadzu Nexera LC Binary Gradient LC-30AD (Shimadzu Inc, Kyoto), coupled to a Sciex 6500+ (AB Inc., Illinois). Separation of compounds was achieved using a HALO 90Å biphenyl (2.7µm,2.1x50mm) (Advanced Materials Technology, Wilmington) column at a temperature of 40°C. A binary mobile phase gradient at a flow rate of 0.7 mL/min was used. Initial LC conditions comprised of 95% solvent A (0.1% formic acid in water) and 5% solvent B (0.1% formic acid in acetonitrile). This was ramped to 95% solvent B at 0.7 minutes, held for 0.5 minutes and then immediately returned to initial conditions. Sample analysis was by electrospray ionisation combined with multiple reaction monitoring in positive ion mode. The ion spray voltage was 5500V.
# In vitro Absorption, Distribution and Metabolism results
# Table S1 – Result from solubility assays performed in PBS pH 7.4 for SSA 9.
# Table S2 – Summary of results from Caco-2 permeability assays for SSA 9. Papp is given as […]
# cm/s. A = apical; B = basolateral. Recovery = % SSA recovered from the assay after 2 hours.
# ID Papp (A-B) % Recovery Papp (B-A) % Recovery Efflux Ratio
# Table S3 – Summary of results from human plasma protein binding assays for SSA 9. % Bound = % of SSA bound to the plasma proteins after 6 hours incubation at 37 °C. Low % […]
# = > 99 %. % Recovery = % SSA recovered from the assay after 6 hours.
# ID % Bound % Recovery % Stability
# Table S4 – Summary of results from mouse, rat and human microsomal stability assays for SSA 9. The in vitro half-life (t1/2) and microsomal intrinsic clearance (CLint) were calculated from the elimination rate (k, the slope of the natural log of concentration verses time curve), assuming first order kinetics, using the formulae t1/2 = 0.693/-k and CLint = 0.693/t1/2 […]. This compound would be classed as a low clearance compound in all three species. […]
compound,measurement,setting,value
O=C(O)CNC(=O)Nc1ccc(C(F)(F)F)cc1 [SSA 1],Kdim (M^-1),[1],41 (±1.3%)[30] M^−1
same,dH (nm),[2],1.3 (ref. [30]) nm
O=C(Nc1ccc(C(F)(F)F)cc1)N[C@H](Cc1ccccc1)C(=O)O [SSA 9],microsomal CLint at 1 µM,"[3]; liver microsomes, mouse microsomes",< 7.5 µL/min/mg
same,Hepatic Extraction Ratio (ER),[3]; mouse,< 0.26
same,Predicted Hepatic CLH,[3]; mouse,< 23.07 mL/min/kg
same,In vitro t1/2,"[3]; mouse, 1 µM, 0.5 mg protein/mL",> 3.0797 h
same,Remaining percentage (%) 0.5 min,"[3]; mouse, +Cofactors",100.00%
same,Remaining percentage (%) 5 min,"[3]; mouse, +Cofactors",101.43%
same,Remaining percentage (%) 15 min,"[3]; mouse, +Cofactors",97.80%
same,Remaining percentage (%) 30 min,"[3]; mouse, +Cofactors",99.51%
same,Remaining percentage (%) 60 min,"[3]; mouse, +Cofactors",99.55%
same,Remaining percentage (%) 0.5 min,"[3]; mouse, -Cofactors",100.00%
same,Remaining percentage (%) 60 min,"[3]; mouse, -Cofactors",101.52%
same,half-life at 1 µM,"[3]; mouse, liver microsomes, mouse, 1 µM, 0.5 mg protein/mL, read-out: In vitro t1/2",> 3.08 h
same,CLint scaled at 1 µM,"[3]; mouse, liver microsomes, read-out: Scale-up CLint",< 31 mL/min/kg
same,microsomal CLint at 1 µM,"[4]; liver microsomes, rat microsomes",< 7.5 µL/min/mg
same,Hepatic Extraction Ratio (ER),[4]; rat,< 0.21
same,Predicted Hepatic CLH,[4]; rat,< 14.42 mL/min/kg
same,In vitro t1/2,"[4]; rat, 1 µM, 0.5 mg protein/mL",> 3.0797 h
same,Remaining percentage (%) 0.5 min,"[4]; rat, +Cofactors",100.00%
same,Remaining percentage (%) 5 min,"[4]; rat, +Cofactors",107.16%
same,Remaining percentage (%) 15 min,"[4]; rat, +Cofactors",104.62%
same,Remaining percentage (%) 30 min,"[4]; rat, +Cofactors",102.68%
same,Remaining percentage (%) 60 min,"[4]; rat, +Cofactors",102.41%
same,Remaining percentage (%) 0.5 min,"[4]; rat, -Cofactors",100.00%
same,Remaining percentage (%) 60 min,"[4]; rat, -Cofactors",107.67%
same,half-life at 1 µM,"[4]; rat, liver microsomes, rat, 1 µM, 0.5 mg protein/mL, read-out: In vitro t1/2",> 3.08 h
same,CLint scaled at 1 µM,"[4]; rat, liver microsomes, read-out: Scale-up CLint",< 18.3 mL/min/kg
same,Papp (B-A),"Caco-2 cell monolayer; 5 µM, 2 hours, basolateral to apical",16.76 10-6 cm/s
same,Efflux Ratio,Caco-2 cell monolayer; Caco-2,96.91
same,Recovery (%) AP-BL,Caco-2 cell monolayer; after 2 hours,110.78%
same,Recovery (%) BL-AP,Caco-2 cell monolayer; after 2 hours,97.74%
